Publication PMC6858373 (Scientific Reports, 2019)
pIC50: −log10 of the molar value. Entries after “also recorded” stand apart in the source; their conditions may differ. Where two headings read alike, the source gives them in different places.

Assays:
[1] = biological target: T1, FGF14:Nav1.6 C-tail complex (Homo sapiens, UniProt Q92915+Q9UQD0); assay: Split-luciferase complementation assay (LCA) in Clone V double stable HEK293 cells; type: cell-based
T1 construct: polymerase chain reaction (PCR) amplification of the FGF14 open reading frame (nt 1–855); C-terminal fragment of Nav1.6 (amino acids 1763–1976) fused with CD4ΔC-tail (amino acids 1–395); expressed in transfected cells

[2] = biological target: full-length P. pyralis luciferase (Photinus pyralis, UniProt P08659, K549A/L550V/N119G/N50D/S548I); type: cell-based
[3] = system: Clone V cells
[4] = CC_NCI screening, LCA luminescence, biological replicate Set 1, normalized to on-plate 0.3% DMSO controls (n=16 per plate)
[5] = CC_NCI screening, LCA luminescence, biological replicate Set 2, normalized to on-plate 0.3% DMSO controls (n=16 per plate)
[6] = CC_NCI screening, LCA, biological replicate Set 1, normalized to on-plate 0.3% DMSO controls
[7] = CC_NCI screening, LCA, biological replicate Set 2, normalized to on-plate 0.3% DMSO controls
[8] = CC_NCI screening, average of Set 1 and Set 2, normalized to 0.3% DMSO controls
[9] = CC_NCI screening, full-length luciferase counter-screen luminescence, normalized to on-plate 0.3% DMSO controls
[10] = CC_NCI screening, full-length luciferase counter-screen, normalized to on-plate 0.3% DMSO controls
[11] = estimated, 8-point dose response 0.25-30 µM, n = 4 per concentration, library compounds, read-out: IC50
[12] = CC_NCI screening, biological replicate Set 1, normalized to on-plate 0.3% DMSO controls
[13] = CC_NCI screening, biological replicate Set 2, normalized to on-plate 0.3% DMSO controls
[14] = CC_NCI screening, biological replicate Set 2, normalized to on-plate 0.3% DMSO controls (n=16 per plate)
[15] = average of Set 1 and Set 2, normalized to 0.3% DMSO controls
[16] = CC_NCI screening, normalized to on-plate 0.3% DMSO controls

Sequence of full-length P. pyralis luciferase (P08659 whole entry N50D/N119G/S548I/K549A/L550V, looked up): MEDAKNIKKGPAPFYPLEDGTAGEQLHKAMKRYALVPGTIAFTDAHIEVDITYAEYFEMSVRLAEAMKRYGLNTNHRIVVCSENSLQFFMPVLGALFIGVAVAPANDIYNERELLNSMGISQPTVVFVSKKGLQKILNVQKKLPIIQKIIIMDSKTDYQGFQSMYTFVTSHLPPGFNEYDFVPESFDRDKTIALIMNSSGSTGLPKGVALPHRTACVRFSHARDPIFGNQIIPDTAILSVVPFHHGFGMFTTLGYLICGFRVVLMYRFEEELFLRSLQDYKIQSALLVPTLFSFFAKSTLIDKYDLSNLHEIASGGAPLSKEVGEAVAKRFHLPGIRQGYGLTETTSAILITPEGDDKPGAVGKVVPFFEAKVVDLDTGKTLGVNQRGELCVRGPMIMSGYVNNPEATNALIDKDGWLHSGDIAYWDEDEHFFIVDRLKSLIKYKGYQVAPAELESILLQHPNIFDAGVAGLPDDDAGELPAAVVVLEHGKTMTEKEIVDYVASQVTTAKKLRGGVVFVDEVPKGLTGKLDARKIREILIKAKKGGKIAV
T1 sequence (Q92915 1-252 isoform Q92915-2): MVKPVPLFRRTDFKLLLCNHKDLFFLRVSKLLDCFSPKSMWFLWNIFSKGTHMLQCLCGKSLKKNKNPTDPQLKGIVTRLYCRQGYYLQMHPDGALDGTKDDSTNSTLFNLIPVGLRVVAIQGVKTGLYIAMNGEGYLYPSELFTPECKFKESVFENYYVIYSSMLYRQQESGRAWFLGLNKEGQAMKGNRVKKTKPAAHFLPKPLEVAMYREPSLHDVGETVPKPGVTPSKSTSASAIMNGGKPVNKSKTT
T1 sequence (Q9UQD0 1763-1976 limits assumed): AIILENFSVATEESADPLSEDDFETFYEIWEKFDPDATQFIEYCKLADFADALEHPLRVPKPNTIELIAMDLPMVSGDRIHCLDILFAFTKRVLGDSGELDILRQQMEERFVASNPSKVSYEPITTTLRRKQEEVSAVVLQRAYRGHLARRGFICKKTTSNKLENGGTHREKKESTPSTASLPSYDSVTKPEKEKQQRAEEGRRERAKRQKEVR

| Compound | Split Luciferase Assay % Lum Set 1 [1, 4] | Split Luciferase Assay %Lum Set 2 [1, 5] | Split Luciferase Assay Z-score Set 1 [1, 6] | Split Luciferase Assay Z-score Set 2 [1, 7] | Split Luciferase Assay %Lum Avg [1, 8] | Luciferase Assay % Lum [2, 9] | Luciferase Assay Z-score [2, 10] | Toxicity Assay % Fluor ([3]; human, 16 h, 30 µM) | Toxicity Assay Z-score ([3]; human, 16 h, 30 µM) | also measured |
| --- | --- | --- | --- | --- | --- | --- | --- | --- | --- | --- |
| Cn1cc(C2=C(c3ccc(Cl)cc3Cl)C(=O)NC2=O)c2ccccc21 [SB 216763] | 88.38% | 106.11% | -0.94 | 0.50 | 97.25% | 100.07% | 0.01 | 101.41% | 0.20 |  |
| O=C1c2c(O)ccc(O)c2C(=O)c2c(NCCNCCO)ccc(NCCNCCO)c21 [Mitoxantrone] | 5.76% | 15.60% | -7.62 | -6.87 | 10.68% | 40.29% | -7.65 | 90.67% | -1.30 |  |
| CCCS(=O)(=O)Nc1ccc(F)c(C(=O)c2c[nH]c3ncc(Cl)cc23)c1F [PLX4720, reference compound] |  |  |  |  |  |  |  | 93.90% | -0.85 | IMin (% Luminescence) [1]: 36.71 % Luminescence; Split Luciferase Assay % Lum Set 1 [1]: 30.77%; Split Luciferase Assay %Lum Avg [1]: 36.71%; Split Luciferase Assay %Lum Set 2 [1]: 42.65%; Split Luciferase Assay Z-score Set 1 [1]: -5.60; Split Luciferase Assay Z-score Set 2 [1]: -4.67; Z-score (LCA primary screening) [1]: −5.13; pIC50 [1, 11]: 5.67; Luciferase Assay % Lum [2]: 79.36%; Luciferase Assay Z-score [2]: -2.64 |
| Cn1c(=O)n(-c2ccc(C(C)(C)C#N)cc2)c2c3cc(-c4cnc5ccccc5c4)ccc3ncc21 [BEZ 235] | 91.64% | 100.91% | -0.68 | 0.07 | 96.28% | 98.68% | -0.17 | 90.66% | -1.31 |  |
| O=C(Nc1cccc(Nc2ncc(Br)c(NCCc3cnc[nH]3)n2)c1)N1CCCC1 [BX 912, reference compound] | 35.11% | 40.57% | -5.24 | -4.84 | 37.84% | 85.82% | -1.82 |  |  | Z-score (LCA primary screening) ([1]; 30 µM, 384-well, average of primary screening (n = 2), vs on-plate 0.3% DMSO): −5.04; dose-response behavior of repurchased compounds ([1]; 10-point dose response 0.25-50 µM, Clone V cells): counter acting activity as a function of dosage; also recorded: act as enhancers at lower concentrations; IMin (% Luminescence) ([1]; antagonists, Clone V cells, 384-well, normalized to DMSO): 37.84 % Luminescence; action toward the FGF14:Nav1.6 C-tail interaction ([1]; dose-dependency validation using fresh compound samples): acted as antagonists; pIC50 [1, 11]: 5.03; pIC50 ([1]; repurchased compounds, 10-point dose response 0.25-50 µM, n = 8 per concentration, Clone V cells, 384-well, read-out: in-cell IC50): 5.17; Toxicity Assay % Fluor [3]: 106.22%; Toxicity Assay Z-score [3]: 0.87 |
| Bleomycin sulfate | 125.34% | 143.56% | 2.05 | 3.54 | 134.45% | 94.27% | -0.73 |  |  | Toxicity Assay % Fluor [3]: 80.17%; Toxicity Assay Z-score [3]: -2.77 |
| CS(=O)(=O)CCNCc1ccc(-c2ccc3ncnc(Nc4ccc(OCc5cccc(F)c5)c(Cl)c4)c3c2)o1 [Lapatinib] |  |  |  |  |  |  |  |  |  | Split Luciferase Assay Z-score Set 1 [1, 12]: 1.35; Split Luciferase Assay Z-score Set 2 [1, 13]: -1.87; Split Luciferase Assay %Lum Set 2 [1, 14]: 76.98%; Split Luciferase Assay %Lum Avg [1, 15]: 96.81%; Luciferase Assay % Lum (full-length luciferase counter-screen) [2]: 75.39%; Luciferase Assay Z-score (full-length luciferase counter-screen) [2]: -3.15; Toxicity Assay % Fluor (CTB cell viability fluorescence) [3]: 114.10%; Toxicity Assay Z-score (CTB cell viability) [3]: 1.97 |
| COc1ccc2c(c1)CC[C@@H]1[C@@H]2CC[C@]2(C)[C@@H](NCCCCCCN3C(=O)C=CC3=O)CC[C@@H]12 [U 73122] | 128.60% | 129.00% | 2.31 | 2.36 | 128.80% | 109.98% | 1.28 |  |  | Toxicity Assay % Fluor [3]: 102.60%; Toxicity Assay Z-score [3]: 0.36 |
| CN(NC(=O)CC(=O)NN(C)C(=S)c1ccccc1)C(=S)c1ccccc1 [ELESCLOMOL] | 30.77% | 35.37% | -5.60 | -5.26 | 33.07% | 99.01% | -0.13 | 74.49% | -3.57 |  |
| Cc1ccc(-c2cc(C(F)(F)F)nn2-c2ccc(S(N)(=O)=O)cc2)cc1 [Celecoxib] | 43.81% | 44.73% | -4.54 | -4.50 | 44.27% | 60.07% | -5.11 | 88.16% | -1.66 |  |
| CO[C@H]1C[C@@H]2CC[C@@H](C)[C@@](O)(O2)C(=O)C(=O)N2CCCC[C@H]2C(=O)O[C@H]([C@H](C)C[C@@H]2CC[C@@H](OC(=O)C(C)(CO)CO)[C@H](OC)C2)CC(=O)[C@H](C)/C=C(\C)[C@@H](O)[C@@H](OC)C(=O)[C@H](C)C[C@H](C)/C=C/C=C/C=C/1C [TEMSIROLIMUS] | 86.21% | 83.22% | -1.11 | -1.36 | 84.72% | 65.73% | -4.39 | 87.05% | -1.81 |  |
| NS(=O)(=O)c1nn2cc(-c3ccccc3)nc2s1 [AEG 3482] |  |  |  |  |  |  |  |  |  | Split Luciferase Assay Z-score Set 1 [1, 12]: 1.78; Split Luciferase Assay % Lum Set 1 ([1]; CC_NCI screening, biological replicate Set 1, normalized to on-plate 0.3% DMSO controls (n=16 per plate)): 122.08%; Split Luciferase Assay Z-score Set 2 [1, 13]: 1.09; Split Luciferase Assay %Lum Set 2 [1, 14]: 113.39%; Split Luciferase Assay %Lum Avg [1, 15]: 117.74%; Luciferase Assay % Lum (full-length luciferase counter-screen) [2, 16]: 93.96%; Luciferase Assay Z-score (full-length luciferase counter-screen) [2, 16]: -0.77; Toxicity Assay % Fluor (CTB cell viability fluorescence) [3]: 105.28%; Toxicity Assay Z-score (CTB cell viability) [3]: 0.74 |
| NC(=O)c1ccc(-c2nc(-c3ccc4c(c3)OCO4)c(-c3ccccn3)[nH]2)cc1 [SB 431542] | 112.30% | 114.43% | 0.99 | 1.17 | 113.37% | 93.14% | -0.88 | 90.72% | -1.30 |  |
